Measurements: US9499823B2, “Constructs expressing chimeric receptors and use thereof for the controlled activation of defence response to pathogens in plants” (priority 2009, dated 2016)
Entries after “also recorded” stand apart in the source; their conditions may differ.

How the values were obtained:
[1] = tested on: RetOx, CYP81F2 and PAD3 transcripts; assay: Elicitor-induced accumulation of Ret-Ox, CYP81F2 and PAD3 transcripts, semi-quantitative PCR; format: cell-based, Arabidopsis thaliana; conditions: flg22 1 μM, 30 minutes, stably transformed Ws-0 plants
Protocol: B) Elicitor induced accumulation of Ret-Ox, CYP81F2 and PAD3 transcripts analysed by semi-quantitative PCR, using the UBQ5 gene for normalization. Leaves were incubated with water, flg22 (1 μM), elfl8 (10 μM) or a generic peptide (10 μM) for 30 minutes. The experiment was repeated three times with similar results. The same experiment was performed in a second independent transgenic line expressing eJMC with similar results.
(§1) 3,3′-diaminobenzidine (DAB) staining, callose deposition and gene resistance analysis were assayed as described (Galletti et al., 2008). For measuring active oxygen species released by tobacco agroinfiltrated plants after elicitor treatment, the authors used a modified luminol-dependent assay (Gomez et al., 1999). Slices, corresponding to approximately 30 mg fresh weight, were transferred to assay tubes containing 1 μM flg22 or 10 μM elfl8 in aqueous solution supplied with 40 μM luminol (SIGMA). Chemo-luminescence was measured in a liquid scintillation counter (LS-6500, Beckman) after 5 and 15 min upon addition of elicitors.
(§2) Fluorescent eJMC and FLS2 were also stably expressed in transgenic Arabidopsis ecotype Wassilewskija (Ws-0), which carries EFR but lacks a flg22 perception system (Gomez-Gomez et al., 1999, Bauer et al., 2001). Transformed T1 plants expressing the proteins, named eJMC plants and FLS2 plants, respectively, were selected by confocal microscopy analysis of adult rosette leaves. […] Fluorescence was detected only in adult rosette leaves, likely due to a low expression level of the receptor at the different developmental stages.

[2] = tested on: transgenic Arabidopsis Ws-0 seedlings; assay: Seedling growth inhibition by flg22 in transgenic Ws-0; format: in vivo, Arabidopsis thaliana; conditions: data not shown
From the text: as §2

[3] = tested on: Arabidopsis ecotype Wassilewskija (Ws-0) leaves; assay: H2O2 accumulation (DAB staining) and callose deposition (aniline blue) in stably transformed Arabidopsis Ws-0; format: cell-based, Arabidopsis thaliana; conditions: flg22 1 μM, 1 h, stably transformed Ws-0 plants
Protocol: A) Histochemical analysis of defense responses upon 1 h of treatment with H2O, flg22 (1 μM) or elfl8 (10 μM).
as §1, §2

[4] = tested on: agroinfiltrated leaves of the Arabidopsis bak1-4 mutant; assay: Receptor internalization in agroinfiltrated leaves of the Arabidopsis bak1-4 mutant; format: cell-based, Arabidopsis thaliana; conditions: 10 μM flg22, 30 min
Protocol: D) Relative variation of fluorescence in agroinfiltrated leaves of the Arabidopsis bak1-4 mutant expressing the indicated receptors and treated for 30 min with 10 μM flg22. Each value was normalised against fluorescence measured after 10 min of stimulation.
The GFP-dependent fluorescence was monitored from 2 to 4 days post infection in cells of the lower epidermis. Pieces of leaf were randomly cut from the infected area and mounted in water or supplemented with elicitors for microscopic observations. Flg22 and elfl8 were used at 10 μM while oligosaccharides were used at 100 μg/mL. Materials were analyzed using a Leica DM IRE epifluorescence microscope equipped with a digital cooled camera (DFC350FX R2; Leica). GFP fluorescence was excited with a 488-nm laser line, and emitted fluorescence was collected at 543-nm. The Leica Confocal Software and Adobe Photoshop 5.0 were used for post-acquisition image processing. All samples were imaged with the 40× or 100× oil objectives. Pictures were taken in Kahlman frame giving an average of 16 scans for the dynamics of internalization and 4 scans for the cellular localizations.
The authors also tested whether the presence of the LRR-RLK BAK1 (Nam & Li 2002), a protein required for flg22 and elfl8 signalling (Chinchilla et al., 2007), is also required for the internalization of eJMC induced by flg22.

[5] = tested on: oxidative burst in tobacco leaves; assay: Oxidative burst, luminol-dependent photon counting in agroinfiltrated tobacco leaf slices; format: cell-based, Nicotiana tabacum; conditions: 10 μM elfl8, after 15 min
Protocol: D) Oxidative burst in tobacco leaves transiently expressing eJMC, EFR and EWAK. Photon counting was realized using tobacco leaves slices in a solution of luminol and peroxidase, during treatment with 10 μM elfl8. eJMC- and EFR-expressing explants were used as a negative and a positive control, respectively. Experiment was repeated at least 6 times on two independent replicated.
(C) Oxidative burst in agroinfiltrated tobacco leaves expressing EWAK. Leaves expressing eJMC and EFR were used as a negative and a positive control, respectively. The burst was measured by photon counting using leaf slices incubated in a solution containing 10 μM elfl8, luminol and peroxidase. The experiment was repeated at least 6 times with two independent replicates.
as §1

[6] = tested on: transgenic Arabidopsis leaves; assay: Constitutive activation of defense responses (H2O2, callose) in transgenic plants; format: cell-based, Arabidopsis thaliana; conditions: no elicitor
Protocol: Leaves were stained with 3,3′-diaminobenzidine (DAB) for H2O2 visualization (upper panel) and with aniline blue for callose visualization (lower panel).
as §1

B. cinerea = assay: Lesion development in Arabidopsis plants inoculated with B. cinerea; format: in vivo; conditions: transgenic Arabidopsis vs Col-0 or Col-0 efr, 48 h post-inoculation
Protocol: (A) Growth of A. tumefaciens in N. tabacum tissues transiently expressing receptor proteins. Tobacco leaves were infiltrated with Agrobacterium carrying the indicated receptor constructs and the number of Agrobacterium colony-forming units (c.f.u.) in the tissues was analyzed immediately after infiltration (white bars) and after 24 h (gray bars). EFR and eJMC were used as positive and negative controls, respectively. For each receptor, three samples were analyzed in five independent experiments. Asterisks indicate statistically significant differences against control (Col-0 for WAK1 plants and Col-0 efr for WEG and EWAK plants). (B) Lesion development in Arabidopsis wild type (Col-0) and mutant Col-0 efr plants and in transgenic plants expressing WAK1, WEG and EWAK plants inoculated with B. cinerea at 48 h post-inoculation. Values are means±s.e.m. of at least 16 lesions. The same experiment was performed in a second independent transgenic line expressing WAK1 with similar results. Asterisks indicate statistically significant differences against control (Col-0 for WAK1 plants and Col-0 efr for WEG and EWAK plants).

Molecule | expression of RetOx, CYP81F2 and PAD3 induced by flg22 [1] | growth inhibition of transgenic seedlings treated with flg22 [2] | H2O2 production induced by flg22 [3] | callose deposition induced by flg22 [3] | internalization induced by flg22 in the bak1-4 mutant [4] | oxidative burst upon treatment with elfl8 [5] | oxidative burst upon treatment with elfl8 ([5]; listed as eJM) | constitutive activation of defense responses (H2O2 levels, callose deposits) [6] | resistance to B. cinerea infection (B. cinerea)
FLS2 [reference compound] | induced | did not show growth inhibition | induced | induced | nearly abolished | – | – | – | –
eJMC: chimera (Arg806FLS2-Val650EFR): LRR and eJM domains of FLS2 fused upstream of TM, iJM and kinase domains of EFR, GFP-fused | induced | did not show growth inhibition | induced | induced | not affected | not | did not show any significant response | – | –
WEG: chimeric receptor: WAK1 ectodomain fused to the TM-iJM-kinase portion of EFR, GFP-fused (protein, left off: large carriers) QHQPGENCQNKCGNITIEYPFGISSGCYYPGNESFSITCKEDRPHVLSDIEVANFNHSGQLQVLLNRSSTCYDEQGKKTEEDSSFTLENLSLSANNKLTAVGCNALSLLDTFGMQNYSTACLSLCDSPPEADGECNGRGCCRVDVSAPLDSYTFETTSGRIKHMTSFHDFSPCTYAFLVEDDKFNFSSTEDLLNLRNVMRFPVLLDWSVGNQTCEQVGSTSICGGNSTCLDSTPRNGYICRCNEGFDGNPYLSAGCQDVNECTTSSTIHRHNCSDPKTCRNKVGGFYCKCQSGYRLDTTTMSCKRKEVVSGICIGIASLLLIIIVASLCWFMKRKKKNNASDGNPSDSTTLGMFHEKVSYEELHSATSRFSSTNLIGSGNFGNVFKGLLGPENKLVAVKVLNLLKHGATKSFMAECETFKGIRHRNLVKLITVCSSLDSEGNDFRALVYEFMPKGSLDMWLQLEDLERVNDHSRSLTPAEKLNIAIDVASALEYLHVHCHDPVAHCDIKPSNILLDDDLTAHVSDFGLAQLLYKYDRESFLNQFSSAGVRGTIGYAAPEYGMGGQPSIQGDVYSFGILLLEMFSGKKPTDESFAGDYNLHSYTKSILSGCTSSGGSNAIDEGLRLVLQVGIKCSEEYPRDRMRTDEAVRELISIRSKFFSSKTTITESPRDAPQSSPQEWMLNTDMHTM | – | – | – | – | – | – | – | do not show constitutive activation of defense responses | increased resistance; also recorded: confers resistance
EFR: Arabidopsis LRR receptor kinase Elongation Factor Tu Receptor (AT5G20480); GFP-fused control (protein) RFSNETDMQALLEFKSQVSENNKREVLASWNHSSPFCNWIGVTCGRRRERVISLNLGGFKLTGVISPSIGNLSFLRLLNLADNSFGSTIPQKVGRLFRLQYLNMSYNLLEGRIPSSLSNCSRLSTVDLSSNHLGHGVPSELGSLSKLAILDLSKNNLTGNFPASLGNLTSLQKLDFAYNQMRGEIPDEVARLTQMVFFQIALNSFSGGFPPALYNISSLESLSLADNSFSGNLRADFGYLLPNLRRLLLGTNQFTGAIPKTLANISSLERFDISSNYLSGSIPLSFGKLRNLWWLGIRNNSLGNNSSSGLEFIGAVANCTQLEYLDVGYNRLGGELPASIANLSTTLTSLFLGQNLISGTIPHDIGNLVSLQELSLETNMLSGELPVSFGKLLNLQVVDLYSNAISGEIPSYFGNMTRLQKLHLNSNSFHGRIPQSLGRCRYLLDLWMDTNRLNGTIPQEILQIPSLAYIDLSNNFLTGHFPEEVGKLELLVGLGASYNKLSGKMPQAIGGCLSMEFLFMQGNSFDGAIPDISRLVSLKNVDFSNNNLSGRIPRYLASLPSLRNLNLSMNKFEGRVPTTGVFRNATAVSVFGNTNICGGVREMQLKPCIVQASPRKRKPLSVRKKVVSGICIGIASLLLIIIVASLCWFMKRKKKNNASDGNPSDSTTLGMFHEKVSYEELHSATSRFSSTNLIGSGNFGNVFKGLLGPENKLVAVKVLNLLKHGATKSFMAECETFKGIRHRNLVKLITVCSSLDSEGNDFRALVYEFMPKGSLDMWLQLEDLERVNDHSRSLTPAEKLNIAIDVASALEYLHVHCHDPVAHCDIKPSNILLDDDLTAHVSDFGLAQLLYKYDRESFLNQFSSAGVRGTIGYAAPEYGMGGQPSIQGDVYSFGILLLEMFSGKKPTDESFAGDYNLHSYTKSILSGCTSSGGSNAIDEGLRLVLQVGIKCSEEYPRDRMRTDEAVRELISIRSKFFSSKTTITESPRDAPQSSPQEWMLNTDMHTM | – | – | – | – | – | produced an oxidative burst; also recorded: robust oxidative burst | – | – | –
